Key:
[1] = biological target: T1, Recombinant human liver GK1 (GST-GK) (Homo sapiens, UniProt P35557); assay: In vitro glucokinase activity assay (G6PDH-coupled, NADH, OD340); format: biochemical; conditions: concentration of activator that produced a 50% increase in the activity of GK; 5 mM D-glucose, 30° C.
T1 construct: made in house; host or cells: E. coli
T1 sequence (P35557 1-466 isoform P35557-2): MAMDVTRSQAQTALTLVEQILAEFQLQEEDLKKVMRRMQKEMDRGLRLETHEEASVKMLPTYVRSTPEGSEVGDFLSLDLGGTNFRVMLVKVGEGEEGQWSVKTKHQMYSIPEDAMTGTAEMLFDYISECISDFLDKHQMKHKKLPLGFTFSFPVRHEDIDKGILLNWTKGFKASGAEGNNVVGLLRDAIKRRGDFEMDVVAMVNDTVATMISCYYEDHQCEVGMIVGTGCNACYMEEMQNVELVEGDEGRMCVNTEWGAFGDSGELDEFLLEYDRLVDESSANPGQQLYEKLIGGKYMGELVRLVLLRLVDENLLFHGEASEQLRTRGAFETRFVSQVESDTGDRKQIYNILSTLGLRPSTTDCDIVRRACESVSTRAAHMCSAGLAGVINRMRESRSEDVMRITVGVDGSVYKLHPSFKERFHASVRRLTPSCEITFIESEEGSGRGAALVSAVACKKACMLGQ
Method in brief: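 GST-fused human liver GK1 from E. coli, run at 30° C. in pH 7.1 HEPES with 5 mM glucose, 1 mM ATP and 10% DMSO, coupled via G6PDH to NADH. OD340 rate measured after enzyme start; SC1.5 is the activator concentration raising activity 50% over DMSO control.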

[2] = system: C57BL/6J mice; assay: Glucokinase activator in vivo screen, blood glucose after oral gavage in lean and diet induced obese mice; conditions: Mus musculus, C57B6 mice, read-out: % gluc lowering @ 2 H; for change in vivo at 50 mg/kg: vs control at 2 hours post 50 mg/kg oral dose; for change in vivo at 25 mg/kg: vs control at 2 hours post 25 mg/kg oral dose
Experimental: Glucokinase Activator in vivo Screen Protocol in Lean and Diet Induced Obese Mice: Lean or Diet-Induced Obese (DIO) C57BL/6J mice were orally dosed via gavage with Glucokinase (GK) activator following a two hour fasting period. Blood glucose determinations were made at various (e.g. 0, 1, 2, 4 and 8 hours post-oral gavage) times during the study.
C57Bl/6J mice were obtained from Jackson Laboratory (Bar Harbor, Me.) and were maintained in a light-dark cycle with lights on from 0600-1800 hr. For studies in lean mice, the mice were received at age ten weeks and given ad libitum access to control diet (LabDiet 5001 chow, PMI Nutrition, Brentwood, Mo.), and were at least age 11 weeks at the time of study. For studies in the DIO model, the mice were received at age five weeks and given ad libitum access to Bio-Sery F3282 High Fat Diet (Frenchtown, N.J.), and were at least age 16 weeks at the time of study. The experiments were conducted during the light phase of the light-dark cycle. Mice (n=6) are weighed and fasted for a two hour period prior to oral treatment. GK activators are formulated in Gelucire vehicle (Ethanol:Gelucire44/14:PEG400q.s. 4:66:30 v/w/v. For studies in lean mice, the mice were dosed orally with 5.04 per gram of body weight (i.e. 5 ml/kg×10.0 mg/ml formulation to equal a 50 mg/kg dose). For studies in DIO mice, the mice were dosed orally with 5.04 per gram of body weight (i.e. 5.0 ml/kg×5 mg/ml formulation to equal a 25 mg/kg dose). Immediately prior to dosing, a pre-dose (time zero) blood glucose reading was acquired by snipping off a small portion of the animal's tail and collecting […] blood into a heparinized capillary tube for analysis. Following GK activator administration, additional blood glucose readings were taken at various time points post dose from the same tail wound. Results were interpreted by comparing the mean blood glucose values of vehicle treated mice with GK activator treated mice over the study period.
The Table below provides data for % glucose lowering of a representative number of compounds of the present invention vs control at 2 hours post 25 or 50 mg/kg dose in C57B6 mice: […]

| Compound | SC1.5 [1] [µM] | change in vivo at 50 mg/kg [2] [%] | change in vivo at 25 mg/kg [2] [%] |
| --- | --- | --- | --- |
| CC(C)S(=O)(=O)c1ccc(C(CC2CCCC2)c2cc3cccnc3[nH]2)cc1 (stereo not shown) [Example 69] | 0.387 | -40.3 |  |
| Clc1ccc(C(CC2CCCC2)c2cc3cccnc3[nH]2)cc1Cl (stereo not shown) [Example 139, 2-[2-Cyclopentyl-1-(3,4-dichloro-phenyl)-ethyl]-1H-pyrrolo[2,3-b]pyridine] | 1.1 | 25.4 |  |
| CS(=O)(=O)c1ccc(/C(=C\C2CCOCC2)c2cc3cc(F)cnc3[nH]2)cc1 [Example 122, 5-Fluoro-2-[(E)-1-(4-methanesulfonyl-phenyl)-2-(tetrahydro-pyran-4-yl)-vinyl]-1H-pyrrolo[2,3-b]pyridine] | 0.051 |  | -59.4 |
| CC(C)(O)c1ccc([C@@H](CC2CCCC2)c2cc3cc(F)cnc3[nH]2)cc1 (single isomer, unassigned) [Example 120] | 0.241 |  | -52 |
| CS(=O)(=O)c1ccc([C@@H](CC2CCOCC2)c2cc3cccnc3[nH]2)cc1 (single isomer, unassigned) [Example 67] | 0.505 |  | -43.6 |
| CC(C)(O)c1ccc(C(CC2CCCC2)c2cc3cccnc3[nH]2)cc1F (stereo not shown) [Example 95, 2-{4-[2-Cyclopentyl-1-(1H-pyrrolo[2,3-b]pyridin-2-yl)-ethyl]-2-fluoro-phenyl}-propan-2-ol] | 0.379 | -49.4 |  |
| COc1cnc2[nH]c([C@H](CC3CCOCC3)c3ccc(S(C)(=O)=O)cc3)cc2c1 (single isomer, unassigned) [Example 32] | 1.1 |  | -23.4 |
| CC(C)(O)c1ccc([C@@H](CC2CCCC2)c2cc3cccnc3[nH]2)cc1 (single isomer, unassigned) [Example 82] | 0.647 |  | -42.7 |
| CS(=O)(=O)c1ccc(C(CC2CCCC2)c2cc3cccnc3[nH]2)cn1 (stereo not shown) [Example 109, 2-[2-Cyclopentyl-1-(6-methanesulfonyl-pyridin-3-yl)-ethyl]-1H-pyrrolo[2,3-b]pyridine] | 2.1 | -31.6 |  |
| COc1cnc2[nH]c([C@H](CC3CCOCC3)c3ccc(C(F)(F)F)cc3)cc2c1 (single isomer, unassigned) [Example 34] | 0.958 |  | -10.7 |
| COc1cnc2[nH]c(C(CC3CCCO3)c3ccc(S(C)(=O)=O)cc3)cc2c1 (single isomer, unassigned) [Example 22, 2-[1-(4-Methanesulfonyl-phenyl)-2-(tetrahydro-furan-2-yl)-ethyl]-5-methoxy-1H-pyrrolo[2,3-b]pyridine] | 2.5 |  | -6.3 |

More lines, main results first:

| SC1.5 [1] [µM] | Compound | change in vivo at 50 mg/kg [2] [%] | change in vivo at 25 mg/kg [2] [%] |
| --- | --- | --- | --- |
| 0.903 | COCc1cnc2[nH]c([C@H](CC3CCCC3)c3ccc(S(C)(=O)=O)cc3)cc2c1 (single isomer, unassigned) [Example 42] |  | -10.3 |
| 0.21 | COCCOc1cnc2[nH]c([C@H](CC3CCCC3)c3ccc(S(C)(=O)=O)cc3)cc2c1 (single isomer, unassigned) [Example 16] |  | -31.3 |
| 0.21 | CS(=O)(=O)c1ccc([C@@H](CC2CCOCC2)c2cc3cc(F)cnc3[nH]2)cc1 (single isomer, unassigned) [Example 124] |  | -35 |
| 0.236 | CS(=O)(=O)c1ccc(C(CC2CCCC2)c2cc3cccnc3[nH]2)cc1 (stereo not shown) [Example 138, 2-[2-Cyclopentyl-1-(4-methanesulfonyl-phenyl)-ethyl]-1H-pyrrolo[2,3-b]pyridine] | -50.4 |  |
| 1.9 | CC(C)NC(=O)c1cnc2[nH]c(C(CC3CCCC3)c3ccc(S(C)(=O)=O)cc3)cc2c1 (stereo not shown) [Example 3, 2-[2-Cyclopentyl-1-(4-methanesulfonyl-phenyl)-ethyl]-1H-pyrrolo[2,3-b]pyridin-5-carboxylic acid isopropylamide] | -5.6 |  |
| 0.05 | CS(=O)(=O)c1ccc([C@@H](CC2CCCC2)c2cc3cc(F)cnc3[nH]2)cc1 (single isomer, unassigned) [Example 118] |  | -48.4 |
